The source of these data is US20190390245A1, “CYTOTOXICITY TEST METHOD FOR MEDICAL DEVICE” (ALCON INC., priority 2018, published 2019).

In series [1] the test system is L929 cells. As to the kind of experiment: Two layer embedded modified agar overlay cytotoxicity test. As to the method:
The test article meets the ‘pass’ criteria of the test if the biological response is less than or equal to grade 2 (mild).
1×MEMAOM was used as the nutrient supplement agar at 2 mL/well.
B) Two layer embedded modified agar overlay. The test materials were added after the base nutrient agar solidified, and 2.0 mL of L929 (1.8×10^6 cells/mL) cell agar mixture described above was added on top of the test materials to fully cover the test materials with a final cell concentration of 3.6×10^6 cells/well. After 24 hours of incubation, cells were examined as described in ISO/USP agar overlay method.
C) For the extended study duration, cells were prepared as described in A) and B). Reference material A and no treatment were evaluated for up to 72-hour incubation.
D) two layer modified and embedded modified agar overlay for liquid materials. Paper filter discs (100 μL of either 100% Ethanol or 2000 ppm BAK) were prepared as described in A) and B).

The subject of series [2] is L929 cells. As to the kind of experiment: ISO/USP (traditional) agar overlay cytotoxicity test. The format is cell-based, Mouse. As to the method: The ISO 10993-5 (2009) qualitative agar diffusion/overlay assay is appropriate for high density materials and liquids. This assay is conducted by adding a thin layer of nutrient-supplemented agar over the near confluent monolayer of L929 cells, and the test material (a solid sample, or an extract of the test material or liquid placed on filter paper) is placed on top of the agar layer. The cushioning effect of an agar layer protects the L929 cells from the potential mechanical damage by the test material's movement. Cells are examined after 24-hours incubation for signs of toxicity and stained with neutral red dye to differentiate between the viable, stressed or lysed cells. Cytotoxic leachates diffuse into the cell layer through the agar, and toxicity is indicated by a loss of viable cells around the test device as evidenced by area devoid of stain under and around the test material. The disadvantage of agar overlay assay is that potential cytotoxic leachates may bind to the agar and not be able to diffuse across the plate as compared to the liquid medium; thus, the cells are not fully exposed to the test substance.

Series [3] has as its system L929 cells. Particulars: concentration known to be toxic to the rabbit eyes; Bruinink and Luginbuehl, 2012; cited from earlier work.

Where two headings read alike, the source gives them in different places.

As for `CCO` [Ethanol, ethanol], the “Color zone formation (observation), Two layer embedded Modified Agar Overlay” value in the series on L929 cells [1] (Table 4, liquids, 100 μL on paper filter) is “no zone”.
As to Benzalkonium Chloride [BAK], in the series with L929 cells [2], the “Grade, color zone formation, ISO/USP Agar Overlay” value was “Grade 0”. For the same compound, the “Color zone formation (observation), Two layer embedded Modified Agar Overlay” value in the series on L929 cells [1] is reported as “no zone”. For the same compound, in the series on L929 cells [3], the “Cytotoxicity responses, traditional agar overlay method (previous observations)” value was “failed to show cytotoxicity responses”.
